Assay results: paper PMC8343220, “The selectivity of α‐adrenoceptor agonists for the human α1A, α1B, and α1D‐adrenoceptors” (Pharmacology Research & Perspectives, 2021)
Where two headings read alike, the source gives them in different places.

Columns and labels:
human α1B‐adrenoceptor [1] = biological target: T1, human α1B‐adrenoceptor (Homo sapiens, UniProt P35368); test: ERK1/2‐phosphorylation (Surefire Alphascreen), CHO‐α1B cells; assay type: cell-based
T1 construct: expressed in transfected cells; host or cells: CHO-K1
T1 sequence (P35368 1-520): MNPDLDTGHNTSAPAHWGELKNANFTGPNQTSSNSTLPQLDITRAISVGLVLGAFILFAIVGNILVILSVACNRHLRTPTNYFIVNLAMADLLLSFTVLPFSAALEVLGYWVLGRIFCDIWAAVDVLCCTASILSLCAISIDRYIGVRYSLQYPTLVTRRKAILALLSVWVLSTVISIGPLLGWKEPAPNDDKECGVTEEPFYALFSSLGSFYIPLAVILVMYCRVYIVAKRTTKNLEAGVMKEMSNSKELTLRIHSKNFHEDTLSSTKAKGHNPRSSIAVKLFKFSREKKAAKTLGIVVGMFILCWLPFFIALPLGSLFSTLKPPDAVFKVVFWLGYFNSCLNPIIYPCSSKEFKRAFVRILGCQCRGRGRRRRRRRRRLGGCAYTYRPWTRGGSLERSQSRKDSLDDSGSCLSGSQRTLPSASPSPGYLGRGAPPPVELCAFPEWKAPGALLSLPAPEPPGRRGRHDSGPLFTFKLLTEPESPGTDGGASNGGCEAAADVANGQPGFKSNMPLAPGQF

[2] = biological target: T2, human α1D‐adrenoceptor (full length) (Homo sapiens, UniProt P25100); test: ERK1/2‐phosphorylation (Surefire Alphascreen), CHO‐α1D cells; assay type: cell-based
T2 construct: human α1D‐adrenoceptor (full length) were used; expressed in transfected cells; host or cells: CHO-K1
T2 sequence (P25100 1-572): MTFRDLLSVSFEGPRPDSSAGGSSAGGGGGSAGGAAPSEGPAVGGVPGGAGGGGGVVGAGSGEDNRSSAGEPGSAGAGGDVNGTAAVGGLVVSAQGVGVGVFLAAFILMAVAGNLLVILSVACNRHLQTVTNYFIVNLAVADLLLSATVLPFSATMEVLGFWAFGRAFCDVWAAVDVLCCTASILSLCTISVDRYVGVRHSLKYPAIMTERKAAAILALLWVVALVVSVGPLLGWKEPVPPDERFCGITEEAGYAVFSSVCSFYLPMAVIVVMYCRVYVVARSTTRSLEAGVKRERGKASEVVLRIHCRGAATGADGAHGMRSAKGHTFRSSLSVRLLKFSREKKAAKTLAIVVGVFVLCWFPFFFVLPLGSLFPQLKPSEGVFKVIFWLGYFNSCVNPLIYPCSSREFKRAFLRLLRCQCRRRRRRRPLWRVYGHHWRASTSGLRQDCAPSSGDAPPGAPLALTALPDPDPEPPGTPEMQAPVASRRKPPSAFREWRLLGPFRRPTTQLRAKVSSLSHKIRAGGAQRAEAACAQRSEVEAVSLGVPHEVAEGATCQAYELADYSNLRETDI

[3] = biological target: T2, human α1D‐adrenoceptor (full length); test: ^3H‐cAMP accumulation in the presence of 10 μM forskolin, CHO‐α1D cells; assay type: cell-based; settings: CHO‐α1D cells; in presence of forskolin; log values given negative
[4] = tested on: parental CHO cell line without any transfected receptors; test: ^3H‐cAMP accumulation, parent CHO cells without transfected receptors; assay type: cell-based, Chinese hamster
human α1B‐adrenoceptor [5] = biological target: T1, human α1B‐adrenoceptor; test: Intracellular free calcium mobilization, CHO‐α1B cells; assay type: cell-based
[6] = biological target: T2, human α1D‐adrenoceptor (full length); test: ^3H‐cAMP accumulation, CHO‐α1D cells; assay type: cell-based; settings: cAMP accumulation without forskolin
[7] = tested on: parental CHO cell line without any transfected receptors; test: Intracellular calcium mobilization, parent CHO cells without transfected receptors; assay type: cell-based, Chinese hamster
[8] = biological target: T2, human α1D‐adrenoceptor (full length); test: ^3H‐prazosin whole‐cell radioligand binding, CHO‐α1D cells
human α1A‐adrenoceptor [9] = biological target: T3, human α1A‐adrenoceptor (Homo sapiens, UniProt P35348); test: ^3H‐cAMP accumulation in the presence of 10 μM forskolin, CHO‐α1A cells; assay type: cell-based; settings: CHO‐α1A cells; 10 μM forskolin
T3 construct: expressed in transfected cells; host or cells: CHO-K1
T3 sequence (P35348 1-466): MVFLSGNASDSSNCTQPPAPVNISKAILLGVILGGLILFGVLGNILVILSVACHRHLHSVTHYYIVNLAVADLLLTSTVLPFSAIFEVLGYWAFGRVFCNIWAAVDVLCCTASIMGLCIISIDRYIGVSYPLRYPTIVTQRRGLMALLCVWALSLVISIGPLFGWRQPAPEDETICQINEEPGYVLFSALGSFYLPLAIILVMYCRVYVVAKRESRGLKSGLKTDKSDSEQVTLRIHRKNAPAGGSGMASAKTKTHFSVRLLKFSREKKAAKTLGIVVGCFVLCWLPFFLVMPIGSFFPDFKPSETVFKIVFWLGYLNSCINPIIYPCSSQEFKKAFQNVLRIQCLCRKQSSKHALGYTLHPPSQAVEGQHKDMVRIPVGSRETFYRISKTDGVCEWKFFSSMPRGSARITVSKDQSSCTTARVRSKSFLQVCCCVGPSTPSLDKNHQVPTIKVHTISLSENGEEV

human α1A‐adrenoceptor [10] = biological target: T3, human α1A‐adrenoceptor; test: ERK1/2‐phosphorylation (Surefire Alphascreen), CHO‐α1A cells; assay type: cell-based
human α1A‐adrenoceptor [11] = biological target: T3, human α1A‐adrenoceptor; test: Intracellular free calcium mobilization, CHO‐α1A cells; assay type: cell-based
human α1A‐adrenoceptor [12] = biological target: T3, human α1A‐adrenoceptor; test: ^3H‐prazosin whole‐cell radioligand binding, CHO‐α1A cells; settings: Log KD α1A, ^3H‐prazosin whole cell binding
[13] = tested on: parental CHO cell line without any transfected receptors; test: Forskolin‐stimulated cAMP accumulation, parent CHO cells without transfected receptors; assay type: cell-based, Chinese hamster
[14] = tested on: parental CHO cell line without any transfected receptors; test: ERK1/2‐phosphorylation, parent CHO cells without transfected receptors; assay type: cell-based, Chinese hamster
human α1B‐adrenoceptor [15] = biological target: T1, human α1B‐adrenoceptor; test: ^3H‐prazosin whole‐cell radioligand binding, CHO‐α1B cells
human α1A‐adrenoceptor [16] = biological target: T3, human α1A‐adrenoceptor; test: ^3H‐cAMP accumulation, CHO‐α1A cells; assay type: cell-based; settings: CHO‐α1A cells
[17] = biological target: T2, human α1D‐adrenoceptor (full length); test: Intracellular free calcium mobilization, CHO‐α1D cells; assay type: cell-based; settings: CHO‐α1D cells; response at 100 µM ligand (no EC50 given)
[18] = biological target: T2, human α1D‐adrenoceptor (full length); settings: CHO‐α1D cells; ligands marked ^a; ref Proudman et al., 2020; cited from earlier work
[19] = ERK1/2‐phosphorylation Log EC50
[20] = Intracellular calcium release Log EC50

With CC(Cc1ccc(O)cc1)NCC(O)c1cc(O)cc(O)c1 (centres unmarked) [Fenoterol] the EC50 (human α1B‐adrenoceptor [1]; [19]) was 2.75 µM, the EC50 [2] was 3.98 µM and the “cAMP (in presence of forskolin) Log EC50” value [3] was “No response”. For the same molecule, the “cAMP accumulation % forskolin” value [4] was “No response”, the EC50 (human α1B‐adrenoceptor [5]; [20]) was 0.537 µM and the “cAMP Log EC50” value [6] was “No response”. The “Intracellular calcium release % ionomycin” value [7] was “No response”, the Kd ([8]; 3H‐prazosin binding Log KD) was 44.7 µM and the Kd ([8]; Log KD α1D, ^3H‐prazosin whole cell binding) was 44.7 µM. The “cAMP accumulation (in presence of forskolin) Log EC50” value (human α1A‐adrenoceptor [9]) was “No response”, the EC50 (human α1A‐adrenoceptor [10]; [19]) was 2.04 µM and the EC50 (human α1A‐adrenoceptor [11]; [20]) was 0.309 µM. For the same molecule, the Kd (human α1A‐adrenoceptor [12]) was 5.13 µM, the “cAMP accumulation (in presence of forskolin) % forskolin-stim cAMP” value [13] was “No response” and the “ERK1/2-phosphorylation % PDBu” value [14] was “No response”. For the same molecule, the Kd (human α1B‐adrenoceptor [15]; Log KD α1B, ^3H‐prazosin whole cell binding) was 123 µM, the Kd (human α1B‐adrenoceptor [15]; Log KD, ^3H‐prazosin binding) was 123 µM and the “cAMP accumulation Log EC50” value (human α1A‐adrenoceptor [16]; 5 h) was “No response”.
With COc1ccccc1N1CCN(CCN2C(=O)CC3(CCCC3)CC2=O)CC1 [BMY7378] the “ERK1/2‐phosphorylation % PDBu” value (human α1B‐adrenoceptor [1]; CHO‐α1B cells, maximal response as % PDBu response, for bi‐phasic responses the initial stimulatory part) was “No response”, the “Intracellular calcium release % Ionomycin at 100 µM” value [17] was 4.2 ± 1.0% and the “ERK1/2‐phosphorylation % PDBu at 100 µM” value ([2]; CHO‐α1D cells, response at 100 µM ligand (no EC50 given)) was 3.0 ± 1.5%. For the same molecule, the “Intracellular calcium release % Ionomycin at 100 µM” value (human α1B‐adrenoceptor [5]; CHO‐α1B cells, response at 100 µM ligand (no EC50 given), % of ionomycin response) was 8.0 ± 2.1%, the Emax ([7]; Cricetulus griseus, CHO cells without transfected receptors, response at maximum concentration used (c2), as % of ionomycin (10μM) response, mean ± s.e.m., read-out: Intracellular calcium release % ionomycin) was 7.8 ± 2.2% and the “% site 1 (% of the response at the first component), α1D two‐component binding curve” value [18] was 57.7 ± 2.6%. For the same molecule, the “ERK1/2‐phosphorylation % PDBu” value (human α1A‐adrenoceptor [10]; CHO‐α1A cells, % of 10 µM PDBu, ^a bi‐phasic: initial stimulatory part) was 29.0 ± 4.7%, the “Intracellular calcium release % ionomycin” value (human α1A‐adrenoceptor [11]; CHO‐α1A cells, maximal response as % of 10 µM ionomycin) was 25.0 ± 3.4% and the “cAMP accumulation (in presence of forskolin) Log EC50” value ([13]; CHO cells without transfected receptors, in presence of forskolin) was “No response”. The “ERK1/2-phosphorylation % PDBu” value ([14]; CHO cells without transfected receptors, maximal response as % of PDBu (10μM) response, mean ± s.e.m.) was “No response” and the “cAMP accumulation % forskolin” value (human α1A‐adrenoceptor [16]; % of 10 µM forskolin response) was “No response”.
